Measured values as given in ChEMBL document CHEMBL5375946, “Discovery of KB-0742, a Potent, Selective, Orally Bioavailable Small Molecule Inhibitor of CDK9 for MYC-Dependent Cancers” (J Med Chem, 2023).

Tests used:
[1] = in vitro; details: rat, plasma
[2] = in vitro; details: dog, plasma
[3] = in vitro; details: mouse, plasma
[4] = in vitro; details: human, plasma
[5] = in vitro; details: dog, liver microsomes

With CCC(CC)c1cc(N[C@H]2CC[C@H](N)C2)n2nccc2n1 [ISTISOCICLIB] the fraction unbound at 10 µM [1] was 0.59, the fraction unbound at 10 µM [2] was 0.28 and the fraction unbound at 10 µM [3] was 0.52. It also gave a fraction unbound at 10 µM [4] of 0.62 and a remaining at 3 h [5] of 68.8%.
